Read-outs that look alike come from different tables or passages of the source.

In one data set the test system is apple leaf miner. In words: Insecticidal effect on apple leaf miner (sprayed apple seedling). Format: in vivo, Lithocolletis ringoniella. The following applies: Phyllonorycter ringoniella, 336 h, 500 ppm, fourteen days after spraying. The essentials:
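Wettable-powder suspensions were sprayed onto potted apple seedlings infested with newly hatched leaf miner larvae, then kept in a greenhouse.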

The subject of data set [1] is tobacco cutworm. In words: Insecticidal effect on tobacco cutworm (cabbage leaf dip). Format: in vivo, Prodenia litura. The following applies: after 48 hours, 25°C. The essentials: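 Cabbage leaves dipped in water-diluted emulsifiable concentrate (two formulations, tests A and B) and air-dried were fed to 3rd-instar tobacco cutworm larvae at 25°C. Percent mortality scored after 48 hours; 3 replicates of 30 insects per compound.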

The test system of data set [2] is tobacco cutworm. In words: Long-lasting insecticidal effect on tobacco cutworm (sprayed cabbage plantlet). The data set is classed as in vivo, Prodenia litura. As to conditions: concentration 500 (unit not given), mortality after 48 hours; for Percent Mortality After Application 3rd Day: leaves cut on 3rd day; for Percent Mortality After Application 5th Day: leaves cut on 5th day; for Percent Mortality After Application 7th Day: leaves cut on 7th day; for Percent Mortality After Application 10th Day: leaves cut on 10th day; for Percent Mortality After Application 15th Day: leaves cut on 15th day. The essentials:
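Cabbage plantlets sprayed with water-diluted emulsifiable concentrate and held in a greenhouse; leaves cut on days 3, 5, 7, 10 and 15 and fed to 3rd-instar larvae at 25°C. Percent mortality scored after 48 h; 3 replicates, 30 insects each.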

Another data set concerns smaller tea tortrix. In words: Insecticidal effect on smaller tea tortrix (apple leaf dip). Format: in vivo. As to conditions: Adoxophyes orana, foliar; Table 9; 100 ppm; after 72 hours, 25°C; wettable powder as Formulation Example 5; read-out: Percent Mortality.
Setting [3] is: Table 10, wettable powder as Formulation Example 5, read-out: Percent Morality (%).
Setting [4] is: Table 3, 500 ppm, emulsifiable concentrate as Formulation Example 1.

On to `CCCSP(=O)(OC)Oc1ccc2c(c1)OC(C)=CC2(C)C` (centres unmarked) [Compound No. 1], for which, in the data set with apple leaf miner (setting [3]), the mortality at 500 ppm turned out to be 100%. Moreover, the “Percent Mortality (%)” value in the data set with tobacco cutworm [1] (setting [4]) worked out at 100%. In the data set with tobacco cutworm [2] (Table 5), the “Percent Mortality After Application 3rd Day” value is 100%, the “Percent Mortality After Application 5th Day” value is 100%, the “Percent Mortality After Application 7th Day” value is reported as 100% and the “Percent Mortality After Application 10th Day” value is given as 100%. For the same compound, the “Percent Mortality After Application 15th Day” value in the data set with tobacco cutworm [2] (Table 5) is 100%. Besides, in the data set with smaller tea tortrix, the mortality at 100 ppm was determined as 100%.
Take `CCCSP(=O)(OCC)Oc1ccc2c(c1)OC(C)=CC2(C)C` (centres unmarked) [Compound No. 2, O-ethyl-S-propyl-O-(2,4,4-trimethyl-1,4-benzopyran-7-yl)phosphorothioate]: the mortality at 500 ppm in the data set on apple leaf miner (setting [3]) was 100%. Moreover, in the data set on tobacco cutworm [1] (setting [4]), the “Percent Mortality (%)” value worked out at 100%. In addition, in the data set on tobacco cutworm [2] (Table 5), the “Percent Mortality After Application 3rd Day” value worked out at 100%, the “Percent Mortality After Application 5th Day” value was 100%, the “Percent Mortality After Application 7th Day” value is recorded as 100% and the “Percent Mortality After Application 10th Day” value worked out at 100%. For the same compound, in the data set on tobacco cutworm [2] (Table 5), the “Percent Mortality After Application 15th Day” value came to 100%. In the data set on smaller tea tortrix, the mortality at 100 ppm was determined as 100%.
Consider `CCCSP(=S)(OC)Oc1ccc2c(c1)OC(C)=CC2(C)C` (centres unmarked) [Compound No. 9, 0-methyl-S-propyl-(2,4,4-trimethyl-1,4-benzopyran-7-yl)phosphorodithioate], for which the mortality at 500 ppm in the data set on apple leaf miner (setting [3]) stood at 100%. The “Percent Mortality (%)” value with tobacco cutworm [1] (setting [4]) was 100%. Besides, in the data set on tobacco cutworm [2] (Table 5), the “Percent Mortality After Application 3rd Day” value came out at 100%, the “Percent Mortality After Application 5th Day” value was determined as 100%, the “Percent Mortality After Application 7th Day” value came out at 100% and the “Percent Mortality After Application 10th Day” value is 100%. In the data set with tobacco cutworm [2] (Table 5), the “Percent Mortality After Application 15th Day” value came to 93.3%. For the same compound, in the data set with smaller tea tortrix, the mortality at 100 ppm amounted to 100%.
With `CCCSP(=S)(OCC)Oc1ccc2c(c1)OC(C)=CC2(C)C` (centres unmarked) [Compound No. 10], in the data set on apple leaf miner (setting [3]), the mortality at 500 ppm turned out to be 100%. Moreover, the “Percent Mortality (%)” value in the data set on tobacco cutworm [1] (setting [4]) came out at 100%. Further, in the data set with tobacco cutworm [2] (Table 5), the “Percent Mortality After Application 3rd Day” value is 100%, the “Percent Mortality After Application 5th Day” value amounted to 100%, the “Percent Mortality After Application 7th Day” value turned out to be 100% and the “Percent Mortality After Application 10th Day” value is reported as 100%. Besides, the “Percent Mortality After Application 15th Day” value in the data set on tobacco cutworm [2] (Table 5) is given as 96.7%. For the same compound, the mortality at 100 ppm in the data set on smaller tea tortrix came to 96.7%.
For `CCCSP(=O)(OCC)Oc1ccc2c(c1)OC(C)(C)C=C2C` (centres unmarked) [Compound No. 20, O-ethyl-S-propyl-0-(2,2,4-trimethyl-1,2-benzopyran-7-yl)phosphorothioate], in the data set on apple leaf miner (setting [3]), the mortality at 500 ppm was determined as 100%. Moreover, in the data set with apple leaf miner (Table 11, wettable powder as Formulation Example 7, read-out: Percent Mortality (%)), the mortality at 500 ppm is 96.6%. The “Percent Mortality (%)” value in the data set with tobacco cutworm [1] (setting [4]) is recorded as 100%. For the same compound, in the data set with tobacco cutworm [1] (Table 4, 100 ppm, emulsifiable concentrate as Formulation Example 3), the “Percent Mortality (%)” value was determined as 100%. In the data set with tobacco cutworm [2] (Table 5), the “Percent Mortality After Application 3rd Day” value turned out to be 100%, the “Percent Mortality After Application 5th Day” value stood at 100%, the “Percent Mortality After Application 7th Day” value stood at 100% and the “Percent Mortality After Application 10th Day” value was 100%. Moreover, in the data set with tobacco cutworm [2] (Table 5), the “Percent Mortality After Application 15th Day” value is 33.3%. In the data set with tobacco cutworm [2] (Table 6), the “Percent Mortality After Application 3rd Day” value is listed as 100%, the “Percent Mortality After Application 5th Day” value was determined as 100%, the “Percent Mortality After Application 7th Day” value amounted to 100% and the “Percent Mortality After Application 10th Day” value came to 90.0%. Also, in the data set with tobacco cutworm [2] (Table 6), the “Percent Mortality After Application 15th Day” value is 46.7% and the “Percent Mortality After Application Immediately after Application” value came to 100%.

The values above are taken from patent EP0054589B1, “Organic phosphoric acid ester derivatives, a process for preparing the same and insecticidal, miticidal or nematocidal compositions containing the same” (priority 1980, dated 1982).
